Test results taken from the supplement of paper PMC9673313.

Compound: Clc1ccc2c(N3CCN(CCCN4CCN(c5ccnc6cc(Cl)ccc56)CC4)CC3)ccnc2c1 [piperaquine]
Experimental: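 Kenyan Plasmodium falciparum field isolates (2008-2021) were tested in a SYBR Green I growth-inhibition assay, either immediately ex vivo (fresh samples) or in vitro after culture adaptation. Cultures were at 1% parasitemia and 2% hematocrit, incubated with serial drug dilutions for 72 h at 37 °C (5% O2, 5% CO2), then read by fluorescence. IC50 was fitted by non-linear regression of the dose-response curve.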

| Test System | IC50 growth inhibition [ng/mL] |
| --- | --- |
| KDH 18/07/0010 | 22.8 |
| MGT 21/08/0119 | 89.6 |
| KOM 16/07/0611 | 14.3 |
| KSI 17/10/920 | 4.71 |
| KOM 19/01/0053 | 19.1 |
| KDH 20/01/0166 | 76.8 |
| 601-0163 | 22 |
| KOM 13/07/0006 | 10.8 |
| KSI 14/03/504 | 13 |
| KOM 20/01/0165 | 11.1 |
| KDH 11/10/733 | 5010 |
| KSI 14/08/627 | 4.19 |
| KCH 10/06/0122 | 69 |
| KDH 19/12/0156 | 19.6 |
| MGT 15/10/104 | 3.35 |
| KOM 13/11/116 | 28.7 |
| KOM 21/05/0262 | 79.4 |
| KOM 21/05/0278 | 2.7 |
| KOM 21/08/0353 | 41.5 |
| KOM 15/05/416 | 1.62 |
| KDH 19/07/0120 | 7.45 |
| KOM 20/02/0179 | 15.7 |

| Test System | IC50 growth inhibition [ng/mL] |
| --- | --- |
| KSI 13/05/346 | 50.2 |
| KCH 11/05/145 | 12 |
| KSI 14/03/507 | 6.69 |
| KDH 21/02/0173 | 36.8 |
| KSI 10/11/118 | 15.7 |
| KSI 15/04/743 | 1.75 |
| KDH 12/11/928 | 4.44 |
| KSI 21/04/0063 | 3 |
| KDH 21/02/0170 | 52.3 |
| KDH 21/02/0197 | 18.4 |
| MDH 11/12/0052 | 4.17 |
| 601-0018 | 9.48 |
| KDH 21/08/0254 | 37.9 |
| KSI 16/07/906 | 38 |
| KOM 14/04/215 | 25.5 |
| KDH 20/01/0163 | 24.5 |
| KOM 21/02/0228 | 62.6 |
| 601-0140 | 25.1 |
| KSI 13/06/360 | 6.81 |
| KOM 15/04/398 | 9.75 |
| KDH 19/12/0157 | 17.5 |
| KSI 13/10/430 | 7.84 |

| Test System | IC50 growth inhibition [ng/mL] |
| --- | --- |
| 601-272 | 20.5 |
| KOM 21/08/0340 | 38.2 |
| KSI 12/01/224 | 19.3 |
| KSI 16/07/908 | 5.24 |
| 601-0154 | 25.2 |
| KOM 13/10/0089 | 18.6 |
| KOM 20/02/0178 | 8.32 |
| KSI 12/06/270 | 17.5 |
| KDH 14/05/1379 | 28.3 |
| KOM 13/10/0073 D28/0 | 15 |
| KOM 21/08/0344 | 24.9 |
| MGT 19/09/0057 | 29.7 |
| KCH 10/05/0116 | 8.81 |
| KOM 21/05/0272 | 3.7 |
| KDH 19/02/0077 | 17 |
| KDH 15/06/1659 | 16.5 |
| KSI 14/03/506 | 12.8 |
| KCH 10/05/108 | 45.1 |
| KOM 16/07/0616 | 30.5 |
| KSI 13/3/323 | 28.7 |
| KOM 13/07/009 | 22.6 |
| KSI 14/04/534 | 1.27 |

| Test System | IC50 growth inhibition [ng/mL] |
| --- | --- |
| KSI 13/04/334 | 19.5 |
| MGT 21/08/0122 | 87.2 |
| KOM 19/12/0166 | 35.5 |
| 601-0186 | 59.6 |
| KCH 10/06/120 | 163 |
| MGT16/01/118 | 3.04 |
| KSI 15/04/730 | 5.13 |
| MGT 14/03/0015 | 7.79 |
| KDH 10/02/0354 | 16 |
| KOM 13/08/0025 | 14.7 |
| KOM 13/09/0051 | 20.6 |
| KOM 21/03/0254 | 2.1 |
| KOM 21/03/0202 | 3 |
| KOM 14/03/169 | 15 |
| KCH 16/07/365 | 31.2 |
| MDH 18/08/004 | 0.851 |
| KCH 14/03/247 | 13.2 |
| 601-0031 | 16.1 |
| KDH 18/07/0001 | 1.19 |
| KDH 16/07/1821 | 19.1 |
| 601-0023 | 12.4 |
| KSI 18/09/0006 | 6.86 |

| Test System | IC50 growth inhibition [ng/mL] |
| --- | --- |
| KOM 21/02/0237 | 1 |
| KOM 19/12/155 | 20.8 |
| KCH 14/10/283 | 5.95 |
| KDH 16/07/1830 | 6.94 |
| KDH 12/10/918 | 13.2 |
| 601-0132 | 17.1 |
| MGT 15/06/0090 | 34.3 |
| MDH 19/01/0031 | 26.2 |
| KOM 13/07/0007 | 6.16 |
| KSI 10/09/096 | 11.6 |
| KSI 14/02/488 | 15.7 |
| KDH 11/10/728 | 105 |
| KCH 10/06/119 | 12.7 |
| KCH 11/04/143 | 20.5 |
| KDH 21/05/0230 | 127 |
| KDH 16/07/1832 | 4.27 |
| KSI 10/09/106 | 201 |
| KCH 16/08 369 | 3.23 |
| KSI 14/01/474 | 16 |
| KSI 15/09/825 | 12.1 |
| KCH 17/09/372 | 8.45 |
